Results published in patent US10189809B2, “SGC stimulators” (Ironwood Pharmaceuticals, Inc., priority 2010, dated 2019).
Where two headings read alike, the source gives them in different places.

Experiments:
[1] = biological target: T1, soluble guanylate cyclase (sGC) (Homo sapiens (Human), UniProt Q02108+Q02153); assay: sGC-HEK-cGMP assay run in the absence of SNP (HEK WC assay); format: cell-based; conditions: for HEK WC Assay (fold increase at 10 μM): compound at 10 μM; for HEK WC Assay (fold increase at 10 μM) / HEK WC Assay (fold increase at 30 μM): no SNP, increase in the sGC receptor activity; for HEK WC Assay (fold increase at 30 μM) / HEK WC Assay (fold increase at 30 μM in the absence of SNP): compound at 30 μM
Procedure, shortened: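 Intracellular cGMP was measured by LC/MS, using a standard curve, in HEK293 cells treated with compound for 10 min at 37° C after a 15 min 0.5 mM IBMX pretreatment, with no SNP present. Lysis and quench used 0.1 M HCl. EC50 values came from concentration-response fits.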

[2] = biological target: Human soluble guanylate cyclase enzyme (hsGC) (Homo sapiens (Human), UniProt Q02108+Q02153); assay: Purified human sGC enzyme activity assay; format: biochemical
Protocol: Human soluble guanylate cyclase enzyme (hsGC) obtained from Enzo Inc. (P/N: ALX-201-177) was used to evaluate the activity of test compounds. The assay reactions contained 0.1 M Tris (pH 8.0), 0.5 mg/mL BSA (pH 8.0), 2 mM DTT, 2 mM MgCl2, 300 μM GTP, 1 mM 3-isobutyl-1-methylxanthine (IBMX) and 5 ng human soluble guanylate cyclase enzyme. Test compounds in DMSO were then added (2 μL, 10 or 30 μM final concentration) and incubated (200 μL, 96-well plate format) at 37° C. for 30 minutes. The controls were carried out using 2 μL DMSO. After the 30 minute incubation, the reaction was stopped with the addition of 200 μL of cold methanol. The plate was then centrifuged at 3,200 rpm for 10 minutes at room temperature. Supernatants (200 μL) were collected and transferred to a new 96 well plate for analysis.
An 8 point cGMP (Sigma-Aldrich P/N: G6129) standard curve was prepared in assay buffer ranging from 0.156-20 μM. Samples for the cGMP standard curve were then diluted with an equal volume of methanol resulting in final cGMP concentrations of 0.078-10 μM.
The cGMP standard curve was generated using GraphPad Prism Software.
Calculations: Specific Activity was determined by the amount of cGMP formed (nmoles) per mg of sGC per min. Enzyme “fold-change” was calculated by dividing Specific Activity for test compounds by Specific Activity of DMSO controls.

[3] = biological target: T1, soluble guanylate cyclase (sGC); assay: sGC-HEK-cGMP assay run with SNP incubation (HEK WC assay); format: cell-based; conditions: for HEK WC Assay (fold increase at 30 μM in the presence of 10 μM SNP): compound at 30 μM; for EC50: in the presence of 10 uM SNP
Procedure, shortened: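 EC50 values derive from concentration-response curves of intracellular cGMP in HEK293 cells, which express sGC endogenously. Compound and sodium nitroprusside were co-incubated 10 min at 37 °C after a 15-min 0.5 mM IBMX step, with 0.1 M HCl lysis and 1% DMSO vehicle.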

[4] = read-out: HEK WC Assay (% Emax at 10 μM with 10 uM SNP)
[5] = read-out: HEK WC Assay (% Emax at 30 μM with 10 uM SNP)

T1 sequence (Q02153 whole entry): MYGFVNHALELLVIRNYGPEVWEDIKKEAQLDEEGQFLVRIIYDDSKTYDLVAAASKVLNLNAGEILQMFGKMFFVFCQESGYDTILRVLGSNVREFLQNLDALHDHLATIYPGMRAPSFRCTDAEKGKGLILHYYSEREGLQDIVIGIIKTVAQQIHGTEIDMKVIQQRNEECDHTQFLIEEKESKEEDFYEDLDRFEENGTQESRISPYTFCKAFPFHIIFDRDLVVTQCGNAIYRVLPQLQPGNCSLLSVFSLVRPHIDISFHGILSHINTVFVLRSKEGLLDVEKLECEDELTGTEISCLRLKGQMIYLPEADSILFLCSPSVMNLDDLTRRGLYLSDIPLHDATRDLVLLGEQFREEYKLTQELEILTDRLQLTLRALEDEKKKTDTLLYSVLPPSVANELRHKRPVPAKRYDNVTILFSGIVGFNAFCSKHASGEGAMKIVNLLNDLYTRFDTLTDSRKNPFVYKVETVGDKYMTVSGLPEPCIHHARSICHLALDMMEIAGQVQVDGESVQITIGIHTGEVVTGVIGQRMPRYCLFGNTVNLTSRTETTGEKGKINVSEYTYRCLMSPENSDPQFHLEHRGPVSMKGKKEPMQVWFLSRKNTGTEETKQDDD
T1 sequence (Q02108 whole entry): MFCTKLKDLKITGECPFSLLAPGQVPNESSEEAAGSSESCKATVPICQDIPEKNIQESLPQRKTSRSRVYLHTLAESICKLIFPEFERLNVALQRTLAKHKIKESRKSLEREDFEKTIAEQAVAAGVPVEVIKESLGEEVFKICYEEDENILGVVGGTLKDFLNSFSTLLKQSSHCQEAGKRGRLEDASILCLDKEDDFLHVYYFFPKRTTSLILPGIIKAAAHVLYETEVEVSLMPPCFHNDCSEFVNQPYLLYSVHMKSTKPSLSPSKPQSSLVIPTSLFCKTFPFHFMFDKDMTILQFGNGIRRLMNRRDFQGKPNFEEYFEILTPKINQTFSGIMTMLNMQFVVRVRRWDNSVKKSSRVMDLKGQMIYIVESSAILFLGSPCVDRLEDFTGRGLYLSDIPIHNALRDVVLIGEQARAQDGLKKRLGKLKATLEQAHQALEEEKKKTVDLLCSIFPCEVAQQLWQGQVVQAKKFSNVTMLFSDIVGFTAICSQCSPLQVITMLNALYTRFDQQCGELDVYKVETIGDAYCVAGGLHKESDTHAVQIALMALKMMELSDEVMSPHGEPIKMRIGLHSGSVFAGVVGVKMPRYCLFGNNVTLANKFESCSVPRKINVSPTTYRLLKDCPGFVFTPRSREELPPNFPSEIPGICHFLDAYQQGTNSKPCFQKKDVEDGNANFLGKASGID
Sequence of Human soluble guanylate cyclase enzyme (hsGC) (Q02153 whole entry): as the sequence (Q02153 whole entry) above
Sequence of Human soluble guanylate cyclase enzyme (hsGC) (Q02108 whole entry): as the sequence (Q02108 whole entry) above

SMILES: Fc1ccccc1Cn1nc(-c2ncccn2)cc1-c1ccncc1 [Compound I-19]
- HEK WC Assay (fold increase at 10 μM) [1]: A (A = no increase to <1 fold increase)
- HEK WC Assay (fold increase at 30 μM) [1]: A (A = no increase to <1 fold increase)
- sGC Enzyme (fold increase at 10 μM without SNP) ([2]; 10 μM compound): A (A = no increase to <2 fold increase)
- sGC Enzyme (fold increase at 30 μM without SNP) ([2]; 30 μM compound): A (A = no increase to <2 fold increase)

SMILES: Fc1ccccc1Cn1nc(-c2ccccn2)cc1-c1cccnc1 [Compound I-20]
- HEK WC Assay (fold increase at 10 μM) [1]: A (A = no increase to <1 fold increase)
- HEK WC Assay (fold increase at 30 μM) [1]: A (A = no increase to <1 fold increase)
- sGC Enzyme (specific activity at 10 μM) ([2]; 10 μM compound): C (C = 100 to <200)
- sGC Enzyme (fold increase at 10 μM without SNP) ([2]; 10 μM compound): A (A = no increase to <2 fold increase)
- sGC Enzyme (specific activity at 30 μM) ([2]; 30 μM compound): D (D = 200 to <500)
- sGC Enzyme (fold increase at 30 μM without SNP) ([2]; 30 μM compound): A (A = no increase to <2 fold increase)

SMILES: O=c1[nH]c2cnc(-c3cc(-c4ccon4)n(Cc4ccccc4F)n3)nc2[nH]1 [Compound I-281]
- HEK WC Assay (fold increase at 30 μM in the absence of SNP) [1]: D (D = 5 to <10 fold increase)
- HEK WC Assay (fold increase at 30 μM in the presence of 10 μM SNP) [3]: E (E = 10 to <20 fold increase)
- EC50 [3]: 20 to 40 µM
- Emax [3, 4]: 60 to 80%
- Emax [3, 5]: 40 to 60%

SMILES: Fc1ccccc1Cn1nc(-c2ccccn2)cc1-c1cnco1 [Compound I-285]
- HEK WC Assay (fold increase at 30 μM in the absence of SNP) [1]: C (C = 2 to <5 fold increase)
- HEK WC Assay (fold increase at 30 μM in the presence of 10 μM SNP) [3]: D (D = 5 to <10 fold increase)
- Emax [3, 4]: 20 to 40%
- Emax [3, 5]: 20 to 40%

SMILES: Fc1ccccc1Cn1nc(-c2ccccn2)cc1N1CCC1 [Compound I-287]
- HEK WC Assay (fold increase at 30 μM in the absence of SNP) [1]: B (B = 1 to <2 fold increase)
- HEK WC Assay (fold increase at 30 μM in the presence of 10 μM SNP) [3]: C (C = 2 to <5 fold increase)
- Emax [3, 4]: 0 to 10%
- Emax [3, 5]: 0 to 10%

SMILES: Fc1ccccc1Cn1nc(-c2ccccn2)cc1N1CCCC1 [Compound I-288]
- HEK WC Assay (fold increase at 30 μM in the absence of SNP) [1]: C (C = 2 to <5 fold increase)
- HEK WC Assay (fold increase at 30 μM in the presence of 10 μM SNP) [3]: C (C = 2 to <5 fold increase)

SMILES: Fc1ccccc1Cn1nc(-c2ccccn2)cc1-n1cncn1 [Compound I-289]
- HEK WC Assay (fold increase at 30 μM in the absence of SNP) [1]: B (B = 1 to <2 fold increase)
- HEK WC Assay (fold increase at 30 μM in the presence of 10 μM SNP) [3]: B (B = 1 to <2 fold increase)
- Emax [3, 4]: 0 to 10%
- Emax [3, 5]: 0 to 10%

SMILES: Fc1ccccc1Cn1nc(-c2ncccn2)cc1C1=NCCO1 [Compound I-290]
- HEK WC Assay (fold increase at 30 μM in the absence of SNP) [1]: B (B = 1 to <2 fold increase)
- HEK WC Assay (fold increase at 30 μM in the presence of 10 μM SNP) [3]: C (C = 2 to <5 fold increase)
- Emax [3, 4]: 10 to 20%
- Emax [3, 5]: 20 to 40%

SMILES: COc1oc(-c2cc(-c3ncccn3)nn2Cc2ccccc2F)nc1C [Compound I-291]
- HEK WC Assay (fold increase at 30 μM in the absence of SNP) [1]: B (B = 1 to <2 fold increase)
- HEK WC Assay (fold increase at 30 μM in the presence of 10 μM SNP) [3]: B (B = 1 to <2 fold increase)
- Emax [3, 4]: 0 to 10%
- Emax [3, 5]: 0 to 10%

SMILES: CCOc1cnc(-c2cc(-c3ncccn3)nn2Cc2ccccc2F)o1 [Compound I-292]
- HEK WC Assay (fold increase at 30 μM in the absence of SNP) [1]: B (B = 1 to <2 fold increase)
- HEK WC Assay (fold increase at 30 μM in the presence of 10 μM SNP) [3]: B (B = 1 to <2 fold increase)
- Emax [3, 4]: 0 to 10%
- Emax [3, 5]: 0 to 10%

SMILES: N#Cc1cc(-c2ncccn2)nn1Cc1ccccc1F [Compound I-293]
- HEK WC Assay (fold increase at 30 μM in the absence of SNP) [1]: C (C = 2 to <5 fold increase)
- HEK WC Assay (fold increase at 30 μM in the presence of 10 μM SNP) [3]: C (C = 2 to <5 fold increase)
- EC50 [3]: 40 to 60 µM
- Emax [3, 4]: 20 to 40%
- Emax [3, 5]: 20 to 40%

SMILES: Oc1coc(-c2cc(-c3ncccn3)nn2Cc2ccccc2F)n1 [Compound I-295]
- HEK WC Assay (fold increase at 30 μM in the absence of SNP) [1]: B (B = 1 to <2 fold increase)
- HEK WC Assay (fold increase at 30 μM in the presence of 10 μM SNP) [3]: C (C = 2 to <5 fold increase)
- EC50 [3]: 40 to 60 µM
- Emax [3, 4]: 0 to 10%
- Emax [3, 5]: 10 to 20%

SMILES: Cc1cc(O)nc(-c2cc(-c3ccon3)n(Cc3ccccc3F)n2)n1 [Compound I-298]
- HEK WC Assay (fold increase at 30 μM in the absence of SNP) [1]: B (B = 1 to <2 fold increase)
- HEK WC Assay (fold increase at 30 μM in the presence of 10 μM SNP) [3]: C (C = 2 to <5 fold increase)
- Emax [3, 4]: 10 to 20%
- Emax [3, 5]: 20 to 40%

SMILES: Cc1cc(Cl)nc(-c2cc(-c3ccon3)n(Cc3ccccc3F)n2)n1 [Compound I-299]
- HEK WC Assay (fold increase at 30 μM in the absence of SNP) [1]: C (C = 2 to <5 fold increase)
- HEK WC Assay (fold increase at 30 μM in the presence of 10 μM SNP) [3]: F (F = 20 to <30 fold increase)
- EC50 [3]: < 20 µM
- Emax [3, 4]: 60 to 80%
- Emax [3, 5]: 60 to 80%

SMILES: Oc1cc(-c2cccnc2)nc(-c2cc(-c3ccon3)n(Cc3ccccc3F)n2)n1 [Compound I-300]
- HEK WC Assay (fold increase at 30 μM in the absence of SNP) [1]: B (B = 1 to <2 fold increase)
- HEK WC Assay (fold increase at 30 μM in the presence of 10 μM SNP) [3]: B (B = 1 to <2 fold increase)

SMILES: Fc1ccccc1Cn1nc(-c2ncccn2)cc1-c1ccco1 [Compound I-306]
- HEK WC Assay (fold increase at 30 μM in the absence of SNP) [1]: D (D = 5 to <10 fold increase)
- HEK WC Assay (fold increase at 30 μM in the presence of 10 μM SNP) [3]: E (E = 10 to <20 fold increase)
- EC50 [3]: < 20 µM
- Emax [3, 4]: 20 to 40%
- Emax [3, 5]: 40 to 60%

SMILES: Fc1ccccc1Cn1nc(-c2ncccn2)cc1C1CCC1 [Compound I-307]
- HEK WC Assay (fold increase at 30 μM in the absence of SNP) [1]: C (C = 2 to <5 fold increase)
- HEK WC Assay (fold increase at 30 μM in the presence of 10 μM SNP) [3]: C (C = 2 to <5 fold increase)
- Emax [3, 4]: 0 to 10%
- Emax [3, 5]: 0 to 10%

SMILES: Fc1ccccc1Cn1nc(-c2cccc(Br)n2)cc1-c1ccccn1 [Compound I-308, 2-Bromo-6-(1-(2-fluorobenzyl)-5-(pyridin-2-yl)-1H-pyrazol-3-yl)pyridine]
- HEK WC Assay (fold increase at 30 μM in the absence of SNP) [1]: B (B = 1 to <2 fold increase)
- HEK WC Assay (fold increase at 30 μM in the presence of 10 μM SNP) [3]: B (B = 1 to <2 fold increase)
- Emax [3, 4]: 0 to 10%
- Emax [3, 5]: 0 to 10%

SMILES: Fc1ccccc1Cn1nc(-c2ncccn2)cc1-c1ncco1 [Compound I-309]
- HEK WC Assay (fold increase at 30 μM in the absence of SNP) [1]: B (B = 1 to <2 fold increase)
- HEK WC Assay (fold increase at 30 μM in the presence of 10 μM SNP) [3]: E (E = 10 to <20 fold increase)
- EC50 [3]: < 20 µM
- Emax [3, 4]: 20 to 40%
- Emax [3, 5]: 20 to 40%

SMILES: Oc1ccc(-c2cc(-c3ccccn3)nn2Cc2ccccc2F)cc1 [Compound I-310]
- HEK WC Assay (fold increase at 30 μM in the absence of SNP) [1]: B (B = 1 to <2 fold increase)
- Emax [3, 4]: 0 to 10%
- Emax [3, 5]: 0 to 10%

SMILES: Fc1ccccc1Cn1nc(-c2ccccn2)cc1-c1cncs1 [Compound I-311]
- HEK WC Assay (fold increase at 30 μM in the absence of SNP) [1]: B (B = 1 to <2 fold increase)
- HEK WC Assay (fold increase at 30 μM in the presence of 10 μM SNP) [3]: C (C = 2 to <5 fold increase)
- Emax [3, 4]: 0 to 10%
- Emax [3, 5]: 0 to 10%

SMILES: Fc1ccccc1Cn1nc(-c2ccccn2)cc1-c1cccc(Br)n1 [Compound I-313, 2-Bromo-6-(1-(2-fluorobenzyl)-3-(pyridin-2-yl)-1H-pyrazol-5-yl)pyridine]
- HEK WC Assay (fold increase at 30 μM in the absence of SNP) [1]: C (C = 2 to <5 fold increase)
- HEK WC Assay (fold increase at 30 μM in the presence of 10 μM SNP) [3]: C (C = 2 to <5 fold increase)
- Emax [3, 4]: 0 to 10%
- Emax [3, 5]: 0 to 10%
